Experimental data from patent US20080261314A1, “FLUORESCENT PROBE FOR ZINC” (DAIICHI PURE CHEMICALS CO., LTD., priority 2001, published 2008).

What was measured:
Type in all cases: physicochemical
[1] = Spectrum measurement (UV, excitation and fluorescence spectra) on addition of ZnSO4
Protocol: To a 15 μM solution of Compound (14) in 100 mM HEPES buffer (pH 7.4), ZnSO4 was added up to 15 μM. Spectra of the solution were measured under the measurement condition described in Example 2. The same spectral measurement was also conducted for Compound (11) as a reference. In FIG. 3, a) UV spectrum change of Compound (14), b) excitation spectra of Compound (14) with fluorescence wavelengths fixed at 495 nm, c) UV spectrum change of Compound (11), and d) excitation spectra of Compound (11) with fluorescence wavelengths fixed at 530 nm are shown. Further, to a 10 μM solution of Compound (15) in 100 mM HEPES buffer (pH 7.4), ZnSO4 was added up to 200 μM. Spectra were measured under the condition described in Example 2.

[2] = Ratio measurement on addition of ions other than zinc ion (selectivity)
Protocol: (§1) To a 20 μM solution of Compound (11) in 100 mM HEPES buffer (pH 7.4), ZnSO4 was added up to 20 μM. Change of the ratio of fluorescence intensities at excitation wavelengths at 335 nm and 354 nm with the fluorescence wavelengths fixed at 530 nm are shown (FIG. 2 (A)). To a 20 μM solution of Compound (11) in 100 mM HEPES buffer (pH 7.4), sodium ions, calcium ions, potassium ions, or magnesium ions were added up to 400 μM. Changes of the ratio of fluorescence intensities at excitation wavelengths at 335 nm and 354 nm with the fluorescence wavelengths fixed at 530 nm are shown (FIG. 2 (B)).
(§2) Studies of fluorescence characteristics and the ratio measurements of Compound (14) and (15) were conducted in the same manners as those described in Example 2 and Example 3. Fluorescent characteristics of Compound (14) and (15) before and after addition of zinc ions (20 μM ZnSO4) are shown in the following Table 2.

[3] = Fluorescence characteristics (excitation and emission maxima) before and after addition of zinc ions
Protocol: Fluorescence characteristics of Compound (11) were studied. Compound (11) was dissolved in 100 mM HEPES buffer (pH 7.4, containing 0.4% DMSO as co-solvent) up to 20 μM and measured excitation spectra.
Hitachi F-4500 fluorescence measurement apparatus
Scanning rate: 240 nm/min
Photomultiplier voltage: 950 V
Measurement temperature: 25° C.
as §2

[4] = Ratio measurement of fluorescence intensities at two excitation wavelengths on addition of zinc ions; details: excitation 335 nm and 354 nm, fluorescence 530 nm; 20 μM compound, ZnSO4 up to 20 μM, HEPES pH 7.4
Protocol: as §1, §2

[5] = 20 μM compound, 20 μM ZnSO4, 100 mM HEPES buffer pH 7.4, 25° C.
[6] = 20 μM compound, 100 mM HEPES buffer pH 7.4, 0.4% DMSO, 25° C.

- Change of absorbance at 335 nm on addition of zinc ions ([1]; 15 μM compound, ZnSO4 up to 15 μM, HEPES pH 7.4): increases
- Change of absorbance at the long-wavelength maximum on addition of zinc ions ([1]; 365 nm for Compound (14), 354 nm for Compound (11), 15 μM compound, ZnSO4 up to 15 μM): decreases
- Change of fluorescence excited at the long-wavelength maximum on addition of zinc ions ([1]; excited at 365 nm (Compound (14), emission 495 nm) or 354 nm (Compound (11), emission 530 nm)): decreases
- Em(nm), after addition of Zn2+ [3, 5]: 528 nm
- Ex(nm), after addition of Zn2+ [3, 5]: 335 nm
- Em(nm), before addition of Zn2+ [3, 6]: 532 nm
- Ex(nm), before addition of Zn2+ [3, 6]: 354 nm
- Wavelength shift of the peak of the excitation spectrum on coordination to a zinc ion ([3]; blue shift, depending on concentration of zinc ions): about 20 nm
SMILES: COc1cc2cc(-c3ccc(C(=O)O)cc3)oc2cc1NCCN(Cc1ccccn1)Cc1ccccn1 [Compound (11)]
- Change of the ratio of fluorescence intensities on addition of sodium, calcium, potassium or magnesium ions ([2]; ions added up to 400 μM, 20 μM compound, 100 mM HEPES pH 7.4): no change of the ratio was observed
- Selectivity to zinc ions ([2]; versus sodium, calcium, potassium, magnesium ions): high selectivity to zinc ions
- Change of the ratio of fluorescence intensities on addition of zinc ions [4]: changed concentration dependent manner of zinc ions
